Among the data in US20240270821A1, “GIP/GLP1/GCG TRI-RECEPTOR AGONISTS AND USES THEREOF” (priority 2023, published 2024) are EC50 values, retold here.

Common to all, as to format: cell-based
For assay [1], the target named is T1, hGIPR (Homo sapiens, UniProt P48546).
T1 sequence (P48546 22-466): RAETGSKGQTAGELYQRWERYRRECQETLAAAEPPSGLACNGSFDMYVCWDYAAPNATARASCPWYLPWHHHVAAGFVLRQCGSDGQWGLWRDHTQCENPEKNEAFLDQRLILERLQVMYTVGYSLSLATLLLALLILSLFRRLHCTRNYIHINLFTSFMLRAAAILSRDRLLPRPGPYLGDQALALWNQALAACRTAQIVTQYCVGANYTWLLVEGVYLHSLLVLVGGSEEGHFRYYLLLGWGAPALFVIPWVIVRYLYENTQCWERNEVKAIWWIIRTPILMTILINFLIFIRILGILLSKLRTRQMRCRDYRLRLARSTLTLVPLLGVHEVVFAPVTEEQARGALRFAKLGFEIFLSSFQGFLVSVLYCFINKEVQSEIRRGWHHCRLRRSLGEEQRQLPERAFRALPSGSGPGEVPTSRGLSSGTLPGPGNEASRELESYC
In words: Functional cAMP activity in the presence of 1% HSA. The note with it: read-out: cAMP Rel EC50, hGIPR.

Assay [2] has as its target T2, hGLP-1R (Homo sapiens, UniProt P43220). Nature of the assay: Functional cAMP activity in the presence of 1% HSA. The note with it: read-out: cAMP Rel EC50, hGLP-1R.
The target of the next assay is human GcgR (Homo sapiens, UniProt P47871). Nature of the assay: Functional cAMP activity in the presence of 1% HSA. The note with it: read-out: cAMP Rel EC50, hGcgR.
Sequence of human GcgR (P47871 26-477): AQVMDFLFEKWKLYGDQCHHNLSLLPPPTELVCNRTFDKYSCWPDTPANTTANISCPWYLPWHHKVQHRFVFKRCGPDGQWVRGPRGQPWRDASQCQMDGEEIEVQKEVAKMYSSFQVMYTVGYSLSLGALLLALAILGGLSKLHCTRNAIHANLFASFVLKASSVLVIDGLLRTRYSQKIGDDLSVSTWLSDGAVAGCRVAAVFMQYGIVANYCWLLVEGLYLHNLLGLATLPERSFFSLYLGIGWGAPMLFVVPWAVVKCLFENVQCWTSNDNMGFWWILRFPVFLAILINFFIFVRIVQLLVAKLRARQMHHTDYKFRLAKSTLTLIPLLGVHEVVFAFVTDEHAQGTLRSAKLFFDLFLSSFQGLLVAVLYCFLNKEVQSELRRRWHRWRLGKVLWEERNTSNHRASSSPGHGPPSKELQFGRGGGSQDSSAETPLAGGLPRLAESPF
Assay [3] addresses T1, hGIPR. In words: Functional cAMP activation in the presence of 0.1% casein (no HSA). The note with it: read-out: Relative cAMP EC50, hGIPR.
Assay [4] deals with T2, hGLP-1R. The description is as above. The note with it: read-out: Relative cAMP EC50, hGLP-1R.
In the next assay the target is hGcgR (Homo sapiens, UniProt P47871). The description is as above. The note with it: read-out: Relative cAMP EC50, hGcgR.
Sequence of hGcgR (P47871 26-477): as above
[5] abbreviates: 0.1% casein, no HSA, geometric mean.
Where [6] appears, read: in the presence of 0.1% casein (no HSA), geometric mean.

Like-named read-outs stand apart in the source and are kept apart here. Starred links: 1 amine or outer side, 2 acyl side, 3 side chain; linkers in the order of their positions; H or OH if unused. Non-standard residues stand in square brackets, D forms with d. Residues, ends and D or L forms follow the SMILES beside them. Groups on a side chain read outwards from the residue. No end group written: not given here. *: point of attachment. C20 diacid = O=C(O)CCCCCCCCCCCCCCCCCCC(=O)*; C18 diacid = O=C(O)CCCCCCCCCCCCCCCCC(=O)*; αMePhe(2-F) = C[C@](N)(Cc1ccccc1F)C(=O)O; γGlu = O=C(O)[C@H](CCC(=O)[*:2])N[*:1]; αMe4Pal = C[C@](N)(Cc1ccncc1)C(=O)O; αMeY = C[C@](N)(Cc1ccc(O)cc1)C(=O)O; αMeF = C[C@](N)(Cc1ccccc1)C(=O)O; 4Pal = N[C@@H](Cc1ccncc1)C(=O)O; αMeL = CC(C)C[C@](C)(N)C(=O)O; αMeS = C[C@](N)(CO)C(=O)O; Orn = NCCC[C@H](N)C(=O)O; AEEA = NCCOCCOCC(=O)O; Aib = CC(C)(N)C(=O)O
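For Relative cAMP EC50, hGIPR in this document: intracellular cAMP rise after 30 min at 37 °C read by HTRF against a standard curve, scaled between buffer alone (0%) and top control ligand concentration (100%), four-parameter fit.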
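For Relative cAMP EC50, hGLP-1R in this document: intracellular cAMP rise after 30 min at 37 °C read by HTRF, normalized between buffer only (0%) and maximal control ligand (100%), four-parameter variable-slope fit.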
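For Relative cAMP EC50, hGcgR in this document: intracellular cAMP rise after 30 min at 37 °C, read by HTRF against a cAMP standard curve, scaled from buffer only (0%) to maximal control ligand response (100%).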

T2 sequence (P43220 24-463): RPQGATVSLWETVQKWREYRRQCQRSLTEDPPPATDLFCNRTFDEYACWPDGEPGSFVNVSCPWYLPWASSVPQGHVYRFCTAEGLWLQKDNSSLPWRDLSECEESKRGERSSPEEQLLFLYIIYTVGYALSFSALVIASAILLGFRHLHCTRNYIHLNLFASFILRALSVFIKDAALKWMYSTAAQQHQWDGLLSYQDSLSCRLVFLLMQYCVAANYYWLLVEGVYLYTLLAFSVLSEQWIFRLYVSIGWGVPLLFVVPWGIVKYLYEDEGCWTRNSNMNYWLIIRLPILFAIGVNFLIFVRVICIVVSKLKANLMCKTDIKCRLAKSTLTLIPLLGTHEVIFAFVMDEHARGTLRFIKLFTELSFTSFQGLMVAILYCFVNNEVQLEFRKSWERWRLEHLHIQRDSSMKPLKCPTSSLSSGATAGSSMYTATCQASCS

Usually EC50 stands for the concentration needed to bring the measured effect to its halfway point. As for “H-Y[Aib]QGT[αMePhe(2-F)]TSD[4Pal]SI[αMeL]LD[Orn][Orn]([γGlu-γGlu-C18 diacid])AQ[αMe4Pal][Orn]FI[dE][αMeY]LIEGGPSSGEPPPETE-NH2 [Example 1209]”, the EC50 on hGIPR [1] worked out at 0.565 nM; at hGLP-1R [2] it was 37.7 nM; at human GcgR, 124 nM; on hGIPR [3] (setting [5]), 0.00819 nM; on hGLP-1R [4] (setting [5]) it was 0.41 nM; at hGcgR (setting [5]), 0.97 nM.

As for “Y[Aib]QGT[αMePhe(2-F)]TSD[4Pal]SI[αMeL]LD[Orn]QAQ[αMe4Pal][Orn]FI[dE][αMeY]LIEGGPSSGEPPPETE-NH2 [Example 1230]”, the EC50 on hGIPR [1] is 0.0152 nM; at hGLP-1R [2], 1.14 nM; on human GcgR, 68.4 nM; on hGIPR [3] (setting [5]), 0.022 nM; at hGLP-1R [4] (setting [5]), 1.19 nM; at hGcgR (setting [5]) it was 64.7 nM.

Turning to “H-Y[Aib]QGTFTSD[4Pal]S[Orn][αMeL]LD[Orn]K([γGlu-γGlu-C18 diacid])AQ[αMe4Pal]QFIEYLLAGGPSSGAPPPSGSEE-NH2 [Example 1002]”, the EC50 at hGIPR [1] worked out at 11.6 nM; on hGLP-1R [2], 1290 nM; on human GcgR, 197 nM; on hGIPR [3] (setting [6]) it was 0.119 nM; at hGLP-1R [4] (setting [6]), 9.09 nM; on hGcgR (setting [6]) it was 1.89 nM.

For the compound “H-Y[Aib]QGTFTSDFS[Orn][αMeL]LDKK([AEEA-γGlu-C20 diacid])AQ[Aib]AFIEWLLEGGPSSGAPPPEGE-NH2 [Example 101]”, the half-maximal effective concentration (EC50) on hGIPR [1] is 133 nM; at hGLP-1R [2], 1090 nM; on human GcgR, 2810 nM; on hGIPR [3] (setting [6]), 0.436 nM; at hGLP-1R [4] (setting [6]), 4.3 nM; at hGcgR (setting [6]) it was 10 nM.

For the compound “H-Y[Aib]QGTFTSD[4Pal]SQ[αMeL]LDKK([γGlu-γGlu-C18 diacid])AQ[αMe4Pal]AFIEYLLAGGPSSGAPPPSGSEE-NH2 [Example 1036]”, the EC50 at hGIPR [1] was determined as 13 nM; at hGLP-1R [2] it was 1080 nM; at human GcgR, 353 nM; on hGIPR [3] (setting [6]), 0.114 nM; at hGLP-1R [4] (setting [6]), 6.87 nM; on hGcgR (setting [6]), 2.05 nM.

For `CC[C@H](C)[C@H](NC(=O)[C@H](CC(C)C)NC(=O)[C@](C)(Cc1ccc(O)cc1)NC(=O)[C@@H](CCC(=O)O)NC(=O)[C@@H](NC(=O)[C@H](Cc1ccccc1)NC(=O)[C@H](CCCN)NC(=O)C(C)(C)NC(=O)[C@H](CCC(N)=O)NC(=O)[C@H](C)NC(=O)[C@H](CCCCNC(=O)CC[C@H](NC(=O)CC[C@H](NC(=O)CCCCCCCCCCCCCCCCC(=O)O)C(=O)O)C(=O)O)NC(=O)[C@H](CCCN)NC(=O)[C@H](CC(=O)O)NC(=O)[C@H](CC(C)C)NC(=O)[C@](C)(CC(C)C)NC(=O)[C@@H](NC(=O)[C@](C)(CO)NC(=O)[C@H](Cc1ccncc1)NC(=O)[C@H](CC(=O)O)NC(=O)[C@H](CO)NC(=O)[C@@H](NC(=O)[C@](C)(Cc1ccccc1F)NC(=O)[C@@H](NC(=O)CNC(=O)[C@H](CCC(N)=O)NC(=O)C(C)(C)NC(=O)[C@@H](N)Cc1ccc(O)cc1)[C@@H](C)O)[C@@H](C)O)[C@@H](C)CC)[C@@H](C)CC)C(=O)N[C@@H](CCC(=O)O)C(=O)NCC(=O)NCC(=O)N1CCC[C@H]1C(=O)N[C@@H](CO)C(=O)N[C@@H](CO)C(=O)NCC(=O)N[C@@H](CCC(=O)O)C(=O)N1CCC[C@H]1C(=O)N1CCC[C@H]1C(=O)N1CCC[C@H]1C(=O)N[C@@H](CO)C(N)=O` [Example 375] (H-Y[Aib]QGT[αMePhe(2-F)]TSD[4Pal][αMeS]I[αMeL]LD[Orn]K([γGlu-γGlu-C18 diacid])AQ[Aib][Orn]FI[dE][αMeY]LIEGGPSSGEPPPS-NH2), the EC50 at hGIPR [1] was determined as 1.78 nM; on hGLP-1R [2], 18 nM; at human GcgR it was 137 nM; at hGIPR [3] (setting [6]) it was 0.0165 nM; at hGLP-1R [4] (setting [6]), 0.299 nM; at hGcgR (setting [6]) it was 1.32 nM.

For the compound “H-Y[Aib]QGT[αMePhe(2-F)]TSD[4Pal][αMeS]I[αMeL]LD[Orn]K([γGlu-γGlu-C18 diacid])AQ[Aib][Orn]FI[dE][αMeY]LTEGGPSSGEPPPSGTGE-NH2 [Example 543]”, the EC50 on hGIPR [1] stood at 1.88 nM; on hGLP-1R [2], 32 nM; at human GcgR, 300 nM; at hGIPR [3] it was 0.0319 nM; on hGLP-1R [4], 0.41 nM; at hGcgR it was 4.56 nM.

In the case of “H-Y[Aib]QGTFTSDYSI[αMeL]LDKQAAK([AEEA-AEEA-γGlu-C20 diacid])AFVEWLLA[Aib]GPSSGEPPPSEG-NH2 [Example 317]”, the EC50 on hGIPR [1] amounted to 62.8 nM; on hGLP-1R [2], 234 nM; on human GcgR it was 1500 nM; at hGIPR [3] (setting [6]), 0.474 nM; on hGLP-1R [4] (setting [6]), 1.32 nM; at hGcgR (setting [6]) it was 2.42 nM.

Turning to `CC[C@H](C)[C@H](NC(=O)[C@H](Cc1ccccc1)NC(=O)[C@H](C)NC(=O)C(C)(C)NC(=O)[C@H](CCC(N)=O)NC(=O)[C@H](C)NC(=O)[C@H](CCCCNC(=O)COCCOCCNC(=O)CC[C@H](NC(=O)CCCCCCCCCCCCCCCCC(=O)O)C(=O)O)NC(=O)[C@H](CCCCN)NC(=O)[C@H](CC(=O)O)NC(=O)[C@H](CC(C)C)NC(=O)[C@H](CC(C)C)NC(=O)[C@@H](NC(=O)[C@](C)(CO)NC(=O)[C@H](Cc1ccc(O)cc1)NC(=O)[C@H](CC(=O)O)NC(=O)[C@H](CO)NC(=O)[C@@H](NC(=O)[C@](C)(Cc1ccccc1)NC(=O)[C@@H](NC(=O)CNC(=O)[C@H](CCC(N)=O)NC(=O)C(C)(C)NC(=O)[C@@H](N)Cc1ccc(O)cc1)[C@@H](C)O)[C@@H](C)O)[C@@H](C)CC)C(=O)N[C@@H](CCC(=O)O)C(=O)N[C@@H](Cc1ccc(O)cc1)C(=O)N[C@@H](CC(C)C)C(=O)N[C@@H](CCC(=O)O)C(=O)N[C@@H](CCC(=O)O)C(=O)NCC(=O)NCC(=O)N1CCC[C@H]1C(=O)N[C@@H](CO)C(=O)N[C@@H](CO)C(=O)NCC(=O)N[C@@H](C)C(=O)N1CCC[C@H]1C(=O)N1CCC[C@H]1C(=O)N1CCC[C@H]1C(=O)N[C@@H](CO)C(N)=O` [Example 393] (H-Y[Aib]QGT[αMeF]TSDY[αMeS]ILLDKK([AEEA-γGlu-C18 diacid])AQ[Aib]AFIEYLEEGGPSSGAPPPS-NH2), the EC50 amounted to 12.4 nM at hGIPR [1]; 29.6 nM at hGLP-1R [2]; 151 nM on human GcgR; 0.0458 nM on hGIPR [3]; 0.211 nM at hGLP-1R [4]; 0.947 nM on hGcgR.

On to “H-Y[Aib]QGT[αMePhe(2-F)]TSD[4Pal][αMeS]I[αMeL]LD[Orn]K([AEEA-γGlu-C18 diacid])AQ[αMe4Pal]EFI[dE][αMeY]LIEGGPPS[Aib]EPPPSGGGE-NH2 [Example 1201]”, for which the EC50 on hGIPR [1] amounted to 1.02 nM; on hGLP-1R [2] it was 93.9 nM; at human GcgR, 234 nM; at hGIPR [3] (setting [5]), 0.00959 nM; on hGLP-1R [4] (setting [5]), 0.888 nM; on hGcgR (setting [5]), 1.76 nM.

As for “H-Y[Aib]QGT[αMePhe(2-F)]TSD[4Pal][αMeS]I[αMeL]LD[Orn]K([γGlu-γGlu-C18 diacid])AQ[Aib][Orn]FI[dE][αMeY]LQEGGPSSGEPPPEGEEE-NH2 [Example 588]”, the EC50 at hGIPR [1] was 2.86 nM; on hGLP-1R [2] it was 34.1 nM; on human GcgR it was 259 nM; at hGIPR [3], 0.0777 nM; on hGLP-1R [4] it was 0.613 nM; on hGcgR it was 4.72 nM.

In the case of “H-Y[Aib]QGTFTSDFS[Orn][αMeL]LDKK([AEEA-AEEA-γGlu-C18 diacid])AQ[Aib]AFIEYLLE[Aib]GESSGAPPPSGT-NH2 [Example 180]”, the EC50 on hGIPR [1] was found to be 24 nM; at hGLP-1R [2], 891 nM; at human GcgR it was 1320 nM; at hGIPR [3] (setting [6]), 0.14 nM; on hGLP-1R [4] (setting [6]), 5.08 nM; on hGcgR (setting [6]) it was 2.44 nM.

As to “H-Y[Aib]QGTFTSD[4Pal]SQ[αMeL]LD[Orn]K([γGlu-γGlu-C18 diacid])AQ[αMe4Pal]AFIEYLIE[Aib]GPSSGAPPPSGSEE-NH2 [Example 937]”, the concentration for a half-maximal effect (EC50) at hGIPR [1] is 19.7 nM; on hGLP-1R [2] it was 261 nM; on human GcgR, 1160 nM; on hGIPR [3] (setting [6]), 0.222 nM; at hGLP-1R [4] (setting [6]), 2.52 nM; at hGcgR (setting [6]), 5.52 nM.
